# Assay results reported in publication PMC6792352, “Limited Chemical Structural Diversity Found to Modulate Thyroid Hormone Receptor in the Tox21 Chemical Library” (Environmental Health Perspectives, 2019).
# Where a name gives a salt, the structure may show the parent alone.
# Assay: in vitro
# Details: rat, gh3-tre-luc cells, AC50 (uM) modified / 1000
row,Structure (SMILES),CC50 at 24 h [µM]
1,"C=CC(C)(CCC=C(C)C)OC(=O)CC (stereo not shown) [3,7-Dimethylocta-1,6-dien-3-yl propanoate]",> 90
2,"CC(C)CCCC(C)CCO (stereo not shown) [3,7-Dimethyloctan-1-ol]",> 90
3,"CCC(C)(CCCC(C)C)OC(C)=O (stereo not shown) [3,7-Dimethyloctan-3-yl acetate]",> 90
4,"CC(C)CCCC(C)CC=O (stereo not shown) [3,7-Dimethyloctanal]",> 90
5,"CC(CCO)CCCC(C)(C)O (stereo not shown) [3,7-Dimethyloctane-1,7-diol]",> 90
6,CCCC(=O)C(CC)Sc1ccoc1C (stereo not shown) [3-(2-Methyl-3-furylthio)-4-heptanone],> 90
7,"CC1=NN(c2cccc(S(=O)(=O)O)c2)C(=O)C1 [3-(3-Methyl-5-oxo-4,5-dihydro-1H-pyrazol-1-yl)benzenesulfonic acid]",> 90
8,CC(C)(C)c1ccc(CCC=O)cc1 [3-(4-tert-Butylphenyl)propanal],> 90
9,"CC1C2CC(CC2C2CCCC(O)C2)C1(C)C (stereo not shown) [3-(5,5,6-Trimethylbicyclo[2.2.1]hept-2-yl)cyclohexanol]",54.6
10,CCCCC(CC)COCCC#N (stereo not shown) [3-((2-Ethylhexyl)oxy)propionitrile],> 90
11,CCCCC(CC)COCCCN (stereo not shown) [3-((2-Ethylhexyl)oxy)propylamine],> 90
12,CCN(Cc1cccc(S(=O)(=O)O)c1)c1ccccc1 [3-((Ethylphenylamino)methyl)benzenesulfonic acid],> 90
13,NCc1cccnc1 [3-(Aminomethyl)pyridine],> 90
14,"O=c1c2ccccc2nnn1CCl [3-(Chloromethyl)-1,2,3-benzotriazin-4(3H)-one]",> 90
15,ClCc1cccnc1 [3-(Chloromethyl)pyridine hydrochloride],> 90
16,CN(C)CCCN [3-(Dimethylamino)propylamine],> 90
17,"CCCCCCCCCC/C=C/C1CC(=O)OC1=O (stereo not shown) [3-(Dodecenyl)dihydro-2,5-furandione]",> 90
18,"CC(O)C(CO)C(C)O (stereo not shown) [3-(Hydroxymethyl)pentane-2,4-diol]",> 90
19,CSCCC=O [3-(Methylthio)propanal],> 100
20,CSCCCN=C=S [3-(Methylthio)propyl isothiocyanate],> 90
21,"CCCCCCCCCCCCCCCCCCOCC(O)CO (stereo not shown) [3-(Octadecyloxy)-1,2-propanediol]",> 50
22,CCCCCCCCOCCCN [3-(Octyloxy)propan-1-amine],11.8
23,CCCCCCCCOCCC#N [3-(Octyloxy)propanenitrile],> 90

row,Structure (SMILES),CC50 at 24 h [µM]
1,C=C(C)C(=O)OCCC[Si](Cl)(Cl)Cl [3-(Trichlorosilyl)propyl methacrylate],> 90
2,CCO[Si](CCCS)(OCC)OCC [3-(Triethoxysilyl)propane-1-thiol],> 90
3,CCO[Si](CCC#N)(OCC)OCC [3-(Triethoxysilyl)propionitrile],> 90
4,Nc1cccc(C(F)(F)F)c1 [3-(Trifluoromethyl)aniline],> 90
5,O=C(O)c1cccc(C(F)(F)F)c1 [3-(Trifluoromethyl)benzoic acid],> 90
6,O=C=Nc1cccc(C(F)(F)F)c1 [3-(Trifluoromethyl)phenyl isocyanate],49
7,CO[Si](CCCNCCC[Si](OC)(OC)OC)(OC)OC [3-(Trimethoxysilyl)-N-[3-(trimethoxysilyl)propyl]propan-1-amine],> 90
8,C=C(C)C(=O)OCCC[Si](OC)(OC)OC [3-(Trimethoxysilyl)propyl methacrylate],> 90
9,CC(=O)Nc1cccc(O)c1 [3-Acetamidophenol],> 90
10,"CC(=O)c1cc(C)oc1C [3-Acetyl-2,5-dimethylfuran]",> 90
11,CC(=O)C1CCOC1=O (stereo not shown) [3-Acetyldihydro-2(3H)-furanone],> 100
12,CC(=O)c1ccc2ccc3ccccc3c2c1 [3-Acetylphenanthrene],> 90
13,CC(=O)c1cccnc1 [3-Acetylpyridine],> 90
14,Nc1cc(C(=O)O)ccc1Cl [3-Amino-4-chlorobenzoic acid],> 90
15,CCOc1ccc(NC(C)=O)cc1N [3-Amino-4-ethoxyacetanilide],> 90
16,Cc1ccc(C(N)=O)cc1N [3-Amino-4-methylbenzamide],> 90
17,CCn1c2ccccc2c2cc(N)ccc21 [3-Amino-9-ethylcarbazole hydrochloride],> 90
18,CC(=O)Nc1cccc(N)c1 [3-Aminoacetanilide],> 90
19,Nc1cccc(S(=O)(=O)O)c1 [3-Aminobenzenesulfonic acid],> 90
20,Nc1ccc2c3c(cccc13)-c1ccccc1-2 [3-Aminofluoranthene],> 90
21,Nc1cccc(O)c1 [3-Aminophenol],> 90
22,CCO[Si](CCCN)(OCC)OCC [3-Aminopropyltriethoxysilane],> 90
23,OCCCNc1ccccc1 [3-Anilinopropan-1-ol],> 50
